According to PubChem BioAssay (NCI):
Where “and” joins values, the source holds several entries; their conditions need not be identical. Identical values can stand only once.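 96-well plates; 48 h exposure; 5 concentrations. Endpoints by linear interpolation between flanking doses. Not reached: highest tested concentration assigned. Here, GI50 denotes the concentration required for 50% inhibition of growth. TGI is the concentration that stops growth completely.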

Legend:
Test in all cases: NCI-60 cell line screen, 48 h
IGROV1 ovarian = system: IGROV1 ovarian
786-0 renal = system: 786-0 renal
HCT-116 colon = system: HCT-116 colon
A549 NSCLC = system: A549 NSCLC
KM12 colon = system: KM12 colon
SK-MEL-28 melanoma = system: SK-MEL-28 melanoma
COLO 205 colon = system: COLO 205 colon
HCT-15 colon = system: HCT-15 colon
RPMI-8226 leukemia = system: RPMI-8226 leukemia
SK-MEL-5 melanoma = system: SK-MEL-5 melanoma

Row | Compound | GI50 (IGROV1 ovarian) | TGI (IGROV1 ovarian) | GI50 (786-0 renal) | TGI (786-0 renal) | GI50 (HCT-116 colon) | TGI (HCT-116 colon) | GI50 (A549 NSCLC) | TGI (A549 NSCLC) | GI50 (KM12 colon) | TGI (KM12 colon) | GI50 (SK-MEL-28 melanoma) | TGI (SK-MEL-28 melanoma) | GI50 (COLO 205 colon) | TGI (COLO 205 colon) | GI50 (HCT-15 colon) | TGI (HCT-15 colon) | GI50 (RPMI-8226 leukemia) | TGI (RPMI-8226 leukemia) | GI50 (SK-MEL-5 melanoma) | TGI (SK-MEL-5 melanoma)
1 | CN(C)c1ccc(/C=C(\C#N)c2nc3ccccc3n2C)cc1 | 5.13 µM | > 100 µM | 8.77 µM | 99 µM | 1.41 µM | > 100 µM | 4.53 µM | > 100 µM | 1.59 µM | 18.4 µM | 8.8 µM | > 78.2 µM | 1.63 µM | 9.26 µM | 1.29 µM | > 87.6 µM | 2.85 µM | 14.7 µM | 1.92 µM | 13.6 µM
2 | O=C1c2ccccc2C(=Cc2ccccc2)c2ccccc21 | 2.35 µM | 11.4 µM | 2.7 µM | 6.94 µM | 1.89 µM | 5.13 µM | 3.22 µM | 9.97 µM | 1.8 µM | 9.81 µM | 4.23 µM | 17.4 µM | 2.2 µM | 5.14 µM | 2.16 µM | 21.8 µM | 3 µM | 14.6 µM | 2.77 µM | 10.9 µM
3 | CC(=O)c1cc2c(cc1Nc1c3ccccc3nc3occ(Cl)c13)OCO2 | 0.185 µM | > 100 µM | 0.291 µM | > 44.3 µM | 0.246 µM | 1.07 µM | 0.2 µM |  | 0.0556 µM | 0.494 µM | 0.541 µM | > 100 µM | 0.391 µM | > 37.9 µM | 0.328 µM |  | 0.0539 µM | 0.139 µM | 0.103 µM | 0.376 µM
4 | COc1ccc2c(c1)C(=O)C(=O)c1cc(O)c(OC)c(OC)c1-2 | 1.71 µM | 1.56 µM and 3.08 µM | 1.85 µM | 1.72 µM and 3.26 µM | 1.72 µM | 1.6 µM and 3.09 µM | 1.96 µM | 12.1 µM and 3.89 µM |  | 3.28 µM | 1.88 µM | 1.67 µM and 3.58 µM | 1.89 µM | 3.54 µM and 3.74 µM | 1.73 µM | 1.78 µM and 3.53 µM | 1.56 µM | 2.67 µM and 3.81 µM | 1.68 µM | 1.53 µM and 3.07 µM
5 | O=C(CCCN1CCOCC1)Nc1ccc(Cn2nnc3c2C(=O)c2nnn(Cc4ccc(NC(=O)CCCN5CCOCC5)cc4)c2C3=O)cc1 | 1.95 µM | 4.62 µM | > 100 µM | > 100 µM | 3 µM | 11.3 µM | > 100 µM | > 100 µM | 6.99 µM | > 100 µM | 3.93 µM | > 100 µM | 0.982 µM | 2.43 µM | > 100 µM | > 100 µM | 2.18 µM | 7.48 µM | 1.52 µM | 3.55 µM
6 | C[C@]12CCc3nonc3C1CC[C@@H]1C2CC[C@]2(C)NC(=O)CCC12 (some centres not stated) |  | > 100 µM |  | > 100 µM |  | > 100 µM |  | > 100 µM |  | > 100 µM |  | > 100 µM |  | > 100 µM |  | > 100 µM |  | > 100 µM |  | > 100 µM
7 | O=C(O)CCC(=O)c1ccc2ccc3cccc4ccc1c2c34 |  | > 100 µM |  | > 100 µM |  | > 100 µM |  | > 100 µM |  | > 100 µM |  | > 100 µM |  | > 100 µM |  | > 100 µM |  | > 100 µM |  | > 100 µM
8 | CC/C=C\C/C=C\C[C@H](O)C/C=C1/C(=O)C=C[C@@H]1C/C=C\CCCC(=O)O | 6.78 µM | 25.9 µM | 2.47 µM | 5.83 µM | 2.08 µM | 4.5 µM | 13.6 µM | 56.6 µM | 3.06 µM | 11.5 µM | 3.83 µM | 13.3 µM | 3.78 µM | 10.9 µM | 3.47 µM | 15.6 µM | 2.63 µM | 12.1 µM | 2.42 µM | 5.98 µM
9 | O=C([O][Hg][CH2]C1COC([CH2][Hg][O]C(=O)c2ccccc2)CO1)c1ccccc1 (configuration not stated) | 8.71 µM | 17.2 µM | 2.88 µM and 1.47 µM | 8.5 µM and 2.99 µM | 4.24 µM and 1.39 µM | 14.7 µM and 2.68 µM | 19.3 µM and 16.4 µM | 37.6 µM and 33.8 µM | 31.1 µM | 46 µM | 15.9 µM and 1.75 µM | 29.5 µM and 3.19 µM | 1.98 µM and 1.07 µM | 4.25 µM and 5.21 µM | 2.83 µM and 1.63 µM | 5.67 µM and 3.15 µM | 1.97 µM and 2.14 µM | 8.46 µM and 6.07 µM | 15.1 µM and 2.85 µM | 28.6 µM and 10.7 µM
10 | CC(=O)OCC(=O)O[C@@H]1C[C@]2(C(C)C)O[C@@]1(C)[C@@H]1CC[C@@H](C)[C@H]1[C@@H]2OC(=O)/C=C/c1ccccc1 | 42.5 µM | > 100 µM | 0.931 µM | 18.9 µM | 16.1 µM | > 100 µM | 18.5 µM | > 100 µM | 26.7 µM | > 100 µM | 22.3 µM | 83.4 µM | 24.2 µM | 84.6 µM | 17.8 µM | > 100 µM | 18.8 µM | > 100 µM | 15.5 µM | 31.5 µM
11 | Cn1nnnc1N/N=C/c1ccccc1 |  | > 10 µM |  | > 10 µM |  | > 10 µM |  | > 10 µM |  | > 10 µM |  | > 10 µM |  | > 10 µM |  | > 10 µM |  | > 10 µM |  | > 10 µM
12 | CN1CCN(Cc2ccc(NC(=O)c3cncc(C#Cc4cncc5ncccc45)c3)cc2C(F)(F)F)CC1 | 1.16 µM | 7.45 µM | 9.81 µM | 22.2 µM | 1.26 µM | 11.5 µM | 3.86 µM | 15.5 µM | 0.0444 µM | 11.7 µM | 1.23 µM | 10.7 µM | 1.11 µM | 13.2 µM | 3.9 µM | 14.7 µM | 3.59 µM | 22.2 µM | 2.95 µM | 13.6 µM
13 | O=C(Nc1cccc(Oc2nnc(Cl)c3ccccc23)c1)Nc1ccc(Cl)c(C(F)(F)F)c1 | 1.04 µM | 5.85 µM | 0.767 µM | 3.01 µM | 1.05 µM | 3.51 µM | 1.1 µM | 8.3 µM | 0.701 µM | 2.97 µM | 0.933 µM | 3.54 µM | 0.97 µM | 3.9 µM | 0.765 µM | 3.53 µM | 0.336 µM | 1.51 µM | 0.985 µM | 3.25 µM
